In PubChem BioAssay (NCI) one finds GI50 and TGI data, which are given here for 16 compounds.

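Values below derive from 48-hour exposures of cells grown in 96-well plates, with endpoints linearly interpolated between the two concentrations bracketing the appropriate inhibition level. GI50 = concentration required for 50% inhibition of growth. TGI: total growth inhibition.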 Some results are limits rather than exact numbers.

Test systems include UACC-62 melanoma; NCI-H226 lung; HL-60(TB) leukemia; OVCAR-8 ovarian; NCI-H522 lung; HOP-92 NSCLC; MALME-3M melanoma; NCI-H460 lung.
What all share (assay): NCI tumour cell line growth inhibition, 48 h

Turning to `O=C(Nc1cc(C(F)(F)F)ccc1F)Nc1n[nH]c2ccccc12`, the GI50 with UACC-62 melanoma, with NCI-H226 lung, in the assay with HL-60(TB) leukemia, in the assay on OVCAR-8 ovarian, in the assay on NCI-H522 lung and with HOP-92 NSCLC was more than 100 µM each time. In addition, the GI50 with MALME-3M melanoma and in the assay with NCI-H460 lung was more than 100 µM in each case. For the same compound, the TGI with UACC-62 melanoma, with NCI-H226 lung, in the assay with HL-60(TB) leukemia, in the assay on OVCAR-8 ovarian, in the assay with NCI-H522 lung and with HOP-92 NSCLC was more than 100 µM each time. Further, the TGI with MALME-3M melanoma and with NCI-H460 lung was more than 100 µM throughout.

Consider `Cn1c(=O)cc2c3c(c(NCCCO)ccc31)C(=O)c1ccccc1-2`, for which the GI50 is 2.45 µM with UACC-62 melanoma; 3.01 µM in the assay with NCI-H226 lung; 2.98 µM in the assay on HL-60(TB) leukemia; 1.48 µM in the assay on OVCAR-8 ovarian; 2.5 µM in the assay with NCI-H522 lung; 2.12 µM in the assay with MALME-3M melanoma. Also, in the assay with NCI-H460 lung, the GI50 is 2.31 µM. The TGI in the assay with UACC-62 melanoma is more than 100 µM; in the assay on NCI-H226 lung, more than 100 µM; in the assay with HL-60(TB) leukemia it was more than 100 µM; in the assay with OVCAR-8 ovarian, more than 100 µM; in the assay on NCI-H522 lung, more than 100 µM; with MALME-3M melanoma, 7.35 µM. Also, the TGI in the assay with NCI-H460 lung was more than 100 µM.

With `COc1ccc(O)c(C(=O)c2ccc(C(=O)O[C@@H]3CCCNC[C@H]3NC(=O)c3ccncc3)cc2)c1F`, the GI50 in the assay on UACC-62 melanoma was 1.51 µM; with NCI-H226 lung, 1.68 µM; with HL-60(TB) leukemia, 0.753 µM; with OVCAR-8 ovarian, 1.04 µM; in the assay on NCI-H522 lung, 1.74 µM; in the assay on MALME-3M melanoma, 1.57 µM. Further, the GI50 in the assay with NCI-H460 lung is 0.869 µM. Moreover, the TGI with UACC-62 melanoma is more than 25 µM; in the assay with NCI-H226 lung, more than 25 µM; in the assay on HL-60(TB) leukemia, 2.34 µM; with OVCAR-8 ovarian, more than 25 µM; in the assay on NCI-H522 lung it was more than 13 µM; in the assay on MALME-3M melanoma, more than 25 µM. This compound showed a TGI in the assay with NCI-H460 lung of more than 25 µM.

Consider `COc1ccc2c(c1)CC[C@@H]1[C@@H]2CC[C@@]2(C)[C@H]1CC1(CCCCC1)[C@@H]2O`, for which the GI50 in the assay with UACC-62 melanoma was 16.4 µM; with NCI-H226 lung it was 20.2 µM; with OVCAR-8 ovarian it was 19 µM; in the assay with NCI-H522 lung, 17.9 µM; in the assay with HOP-92 NSCLC, 16 µM; with MALME-3M melanoma, 18.8 µM. Also, in the assay with NCI-H460 lung, the GI50 is 3.82 µM. For the same compound, the TGI came to 31.6 µM in the assay with UACC-62 melanoma; 44.9 µM with NCI-H226 lung; 41.5 µM in the assay with OVCAR-8 ovarian; 36.6 µM with NCI-H522 lung; 33 µM in the assay with HOP-92 NSCLC; 36.3 µM with MALME-3M melanoma. The TGI with NCI-H460 lung stood at 15.4 µM.

In the case of `CCCCC(=O)N/N=C/c1cc(I)cc(I)c1O`, the GI50 in the assay with UACC-62 melanoma is 2.24 µM; with NCI-H226 lung, 5.93 µM; in the assay on HL-60(TB) leukemia, 2.49 µM; in the assay on OVCAR-8 ovarian it was 2.26 µM; with NCI-H522 lung, 2.91 µM; in the assay on NCI-H460 lung, 2.25 µM. In addition, the TGI in the assay on UACC-62 melanoma is 8.33 µM; in the assay on NCI-H226 lung it was 36.7 µM; in the assay with HL-60(TB) leukemia, 7.27 µM; in the assay with OVCAR-8 ovarian, 13.3 µM; in the assay on NCI-H522 lung, 17.5 µM; in the assay on NCI-H460 lung it was 15.5 µM.

Turning to `N=C(N)SCCc1cn2ccccc2n1`, the TGI in the assay on NCI-H226 lung, in the assay with HL-60(TB) leukemia, with OVCAR-8 ovarian, in the assay on NCI-H522 lung, in the assay with MALME-3M melanoma and in the assay with NCI-H460 lung was more than 100 µM in each case.

`COc1cnc2c(c1)C(=O)c1c-2n(CCCn2ccnc2)c(=O)c2cc(Cl)ccc12`: the GI50 in the assay with UACC-62 melanoma was 0.0283 µM; in the assay with NCI-H226 lung, 0.0464 µM; in the assay with OVCAR-8 ovarian it was 0.0389 µM; with NCI-H522 lung it was 0.0276 µM; with HOP-92 NSCLC, 0.0726 µM; in the assay with MALME-3M melanoma it was 0.293 µM. In the assay with NCI-H460 lung, the GI50 is less than 0.01 µM. For the same compound, the TGI in the assay on UACC-62 melanoma is 0.204 µM; in the assay with NCI-H226 lung, 0.892 µM; in the assay with OVCAR-8 ovarian it was 14.3 µM; in the assay with NCI-H522 lung it was 10.1 µM; in the assay on HOP-92 NSCLC, 56.2 µM; with MALME-3M melanoma, 37.4 µM. The compound further had a TGI in the assay with NCI-H460 lung of 0.271 µM.

Take `CC(=O)/C=C/C1=C(c2cc3ccccc3s2)c2ccccc2CC1`: the GI50 is 16.7 µM in the assay on UACC-62 melanoma; 19.8 µM with NCI-H226 lung; 16.4 µM in the assay on HL-60(TB) leukemia; 39.4 µM in the assay with OVCAR-8 ovarian; 26 µM with NCI-H522 lung; 14.8 µM in the assay with HOP-92 NSCLC. Also, the GI50 in the assay on MALME-3M melanoma was 26.6 µM. For the same compound, the TGI with UACC-62 melanoma was 34.2 µM; in the assay with NCI-H226 lung, 40.8 µM; with HL-60(TB) leukemia, 98.2 µM; with OVCAR-8 ovarian, more than 100 µM; with NCI-H522 lung, 72.2 µM; with HOP-92 NSCLC, 62.6 µM. The TGI in the assay on MALME-3M melanoma turned out to be 58.4 µM.

Take `CC1(O)CC2C(CC1SCCO)C2(C)C` (stereo not drawn): the TGI in the assay with HL-60(TB) leukemia, in the assay on OVCAR-8 ovarian, in the assay with HOP-92 NSCLC, with MALME-3M melanoma and in the assay on NCI-H460 lung was more than 100 µM throughout.

Consider `Brc1ccc([I+]c2ccc(Br)cc2)cc1`, for which the GI50 in the assay with UACC-62 melanoma is 2.87 µM; with NCI-H226 lung it was 2.93 µM; in the assay on OVCAR-8 ovarian, 1.08 µM; in the assay with NCI-H522 lung it was 1.28 µM; in the assay on HOP-92 NSCLC it was 0.822 µM; in the assay with MALME-3M melanoma, 1.38 µM. The GI50 with NCI-H460 lung is 0.866 µM. Moreover, the TGI was 17.5 µM in the assay with UACC-62 melanoma; 15.3 µM in the assay on NCI-H226 lung; 4.01 µM in the assay on OVCAR-8 ovarian; 3.18 µM in the assay with NCI-H522 lung; 5.69 µM with HOP-92 NSCLC; 12.3 µM with MALME-3M melanoma. Also, the TGI in the assay on NCI-H460 lung is 4.23 µM.

Consider `O=C(COc1cccc(/C=C2\COc3ccccc3C2=O)c1)Nc1nccs1`, for which the GI50 was 1.69 µM in the assay with UACC-62 melanoma; 4.62 µM in the assay with NCI-H226 lung; 1.59 µM in the assay on HL-60(TB) leukemia; 3.4 µM in the assay on OVCAR-8 ovarian; 1.52 µM in the assay with NCI-H522 lung; 1.82 µM in the assay with MALME-3M melanoma. The GI50 with NCI-H460 lung is 6.92 µM. Moreover, the TGI stood at 3.76 µM with UACC-62 melanoma; 25.1 µM in the assay with NCI-H226 lung; 3.44 µM with HL-60(TB) leukemia; 11.2 µM with OVCAR-8 ovarian; 3.19 µM in the assay with NCI-H522 lung; 3.49 µM in the assay on MALME-3M melanoma. In addition, the TGI in the assay with NCI-H460 lung was determined as 31.6 µM.

Turning to `CN1CCN(c2ccc3c4c(cccc24)C(=O)N(CCN2CCN(CCCN4CCN(CCN5C(=O)c6cccc7c(N8CCN(C)CC8)ccc(c67)C5=O)CC4)CC2)C3=O)CC1`, the GI50 was 8.45 µM in the assay with UACC-62 melanoma; 6 µM in the assay with NCI-H226 lung; 1.49 µM with HL-60(TB) leukemia; 2.99 µM with OVCAR-8 ovarian; 2.39 µM with HOP-92 NSCLC; 8.36 µM in the assay with MALME-3M melanoma. In the assay with NCI-H460 lung, the GI50 was 5.54 µM. Moreover, the TGI in the assay on UACC-62 melanoma turned out to be 15.7 µM; with NCI-H226 lung it was 14.4 µM; in the assay on HL-60(TB) leukemia, 7.15 µM; in the assay with OVCAR-8 ovarian it was 10.7 µM; with HOP-92 NSCLC, 10.9 µM; with MALME-3M melanoma, 19.8 µM. The compound further returned a TGI with NCI-H460 lung of 33.5 µM.

With `CCCN(CCC)c1ccc(CO)c(C)c1`, the GI50 was 22.8 µM in the assay on UACC-62 melanoma; 9.4 µM in the assay on NCI-H226 lung; 21.6 µM in the assay with HL-60(TB) leukemia; 27.4 µM with OVCAR-8 ovarian; 19.3 µM in the assay with NCI-H522 lung; 11.3 µM in the assay with MALME-3M melanoma. Further, the GI50 in the assay on NCI-H460 lung was more than 100 µM. Besides, the TGI in the assay with UACC-62 melanoma was more than 100 µM; in the assay with NCI-H226 lung it was 23.7 µM; with HL-60(TB) leukemia, 48.7 µM; in the assay with OVCAR-8 ovarian, more than 100 µM; with NCI-H522 lung, 60.5 µM; with MALME-3M melanoma, 94.4 µM. In the assay on NCI-H460 lung, this compound came in with a TGI of more than 100 µM.

Regarding `N#Cc1ccccc1C#C/C=C\C#Cc1ccc(OCCCNC(=O)c2cc3ccccc3[nH]2)cc1`, the GI50 was 13.7 µM in the assay with UACC-62 melanoma; 13.8 µM with NCI-H226 lung; 16.2 µM in the assay with OVCAR-8 ovarian; 13.9 µM in the assay on NCI-H522 lung; 14 µM with MALME-3M melanoma; 33.9 µM in the assay on NCI-H460 lung. Further, the TGI with UACC-62 melanoma was 28.4 µM; in the assay on NCI-H226 lung, 31.9 µM; with OVCAR-8 ovarian, 36.9 µM; in the assay on NCI-H522 lung, 32.3 µM; with MALME-3M melanoma, 34.8 µM; in the assay with NCI-H460 lung it was more than 100 µM.

`O=C1/C(=C/c2ccccc2Cl)N=C(c2ccccc2)N1Cc1ccco1`: the GI50 with UACC-62 melanoma is 12.6 µM; in the assay on OVCAR-8 ovarian it was more than 100 µM; in the assay on NCI-H522 lung, 26.2 µM; in the assay on HOP-92 NSCLC it was 51.9 µM; in the assay with MALME-3M melanoma, 16.6 µM; with NCI-H460 lung, 42.6 µM. The TGI in the assay on UACC-62 melanoma was 34.7 µM; in the assay with OVCAR-8 ovarian it was more than 100 µM; with NCI-H522 lung it was 66.7 µM; with HOP-92 NSCLC, more than 100 µM; in the assay with MALME-3M melanoma, 36 µM; in the assay with NCI-H460 lung it was more than 100 µM.

For `O=C1c2ccccc2C(=O)N1c1ccc(S(=O)(=O)Nc2ncccn2)cc1`, the GI50 in the assay with UACC-62 melanoma, with NCI-H226 lung, with HL-60(TB) leukemia, with OVCAR-8 ovarian, in the assay on NCI-H522 lung and in the assay on MALME-3M melanoma was more than 100 µM throughout. For the same compound, in the assay with NCI-H460 lung, the GI50 is more than 100 µM. For the same compound, the TGI in the assay on UACC-62 melanoma, in the assay on NCI-H226 lung, in the assay on HL-60(TB) leukemia, in the assay on OVCAR-8 ovarian, in the assay with NCI-H522 lung and in the assay with MALME-3M melanoma was more than 100 µM each time. This compound had a TGI in the assay with NCI-H460 lung of more than 100 µM.
